# Test results: patent US10065950B2, “Substituted thiazoles as HIV integrase inhibitors” (Japan Tobacco Inc., priority 2010, dated 2018)
# Target: HIV-1 pNL4-3 integrase (Human immunodeficiency virus type 1 group M subtype B (isolate NY5) (HIV-1), UniProt P12497)
# Assay: Determination of enzyme (HIV integrase) inhibitory activity
# Assay type: biochemical
# Settings: calculated from inhibition rate (fluorescence)
# In short: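 Full-length pNL4-3 integrase from E. coli (0.75 μM stock) reacted 60 min at 37° C with compound and biotinylated donor DNA bound to streptavidin plates, in MOPS buffer with 5 mM MgCl2 and 10% DMSO. Digoxigenin-labelled target DNA (25 nM stock) then added for 20 min; strand transfer read by peroxidase anti-digoxigenin fluorescence (Ex 325/Em 420 nm).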
row,SMILES,IC50
1,COC[C@@H]1[C@@H](C)N(C(C)C)C(=O)c2c(O)c(=O)c(-c3nnc(Cc4ccc(F)cc4)s3)cn21 [Example 288],8.8 nM
2,CCN1C(=O)c2c(O)c(=O)c(-c3nnc(Cc4ccc(F)cc4)s3)cn2[C@H](COC)[C@H]1C [Example 289],10 nM
3,CC(C)N1C[C@](C)(C(=O)N2CCC(=O)C2)n2cc(-c3ncc(Cc4ccc(F)cc4)s3)c(=O)c(O)c2C1=O [Example 290],14 nM
4,CC[C@@H]1Cn2cc(-c3nnc(Cc4ccc(F)cc4)s3)c(=O)c(O)c2C(=O)N1CC [Example 291],8.7 nM
5,CCN1C(=O)c2c(O)c(=O)c(-c3ncc(Cc4ccc(F)cc4)s3)cn2C[C@]1(C)C(=O)NC [Example 292],7.3 nM
6,CCN1C(=O)c2c(O)c(=O)c(-c3ncc(Cc4ccc(F)cc4)s3)cn2C[C@]1(C)C(=O)N(C)C [Example 293],9.6 nM
7,CCN1C(=O)c2c(O)c(=O)c(-c3ncc(Cc4ccc(F)cc4)s3)cn2C[C@]1(C)C(=O)N1CCCC1 [Example 294],11 nM
8,CCC(CC)N1C(=O)c2c(O)c(=O)c(-c3nnc(Cc4ccc(F)cc4)s3)cn2C[C@H]1COC [Example 295],12 nM
9,CCN1C[C@](C)(COCCOC)n2cc(-c3nnc(Cc4ccc(F)cc4)s3)c(=O)c(O)c2C1=O [Example 296],19 nM
10,COCCOC[C@@]1(C)CN(C2CC2)C(=O)c2c(O)c(=O)c(-c3nnc(Cc4ccc(F)cc4)s3)cn21 [Example 297],20 nM
11,CCN1C(=O)c2c(O)c(=O)c(-c3nnc(Cc4ccc(F)cc4)s3)cn2[C@@H](C)[C@@H]1COC [Example 298],9 nM
12,COC[C@H]1[C@H](C)n2cc(-c3nnc(Cc4ccc(F)cc4)s3)c(=O)c(O)c2C(=O)N1C(C)C [Example 299],9.8 nM
13,CCN1C(=O)c2c(O)c(=O)c(-c3nnc(CCc4ccc(F)cc4F)s3)cn2C[C@H]1COC [Example 300],9 nM
14,CCN1C(=O)c2c(O)c(=O)c(-c3nnc(Cc4ccc(F)cc4)s3)cn2CC1(COC)COC [Example 301],8 nM
15,COC[C@H]1CN([C@H](C)C2CC2)C(=O)c2c(O)c(=O)c(-c3nnc(Cc4ccc(F)cc4)s3)cn21 [Example 302],9.9 nM
16,CC[C@@H]1Cn2cc(-c3nnc(Cc4ccc(F)cc4)s3)c(=O)c(O)c2C(=O)N1CC1CC1 [Example 303],5.8 nM
17,COC[C@@H]1[C@@H](C)n2cc(-c3nnc(Cc4ccc(F)cc4)s3)c(=O)c(O)c2C(=O)N1C(C)C [Example 304],9.1 nM
18,CCN1C(=O)c2c(O)c(=O)c(-c3nnc(Cc4ccc(F)cc4)s3)cn2[C@H](C)[C@H]1COC [Example 305],9.5 nM
19,CC(C)N1C(=O)c2c(O)c(=O)c(-c3nnc(Cc4ccc(F)cc4)s3)cn2C[C@@]1(C)C(=O)N1CCCC1 [Example 306],10 nM
20,CCNC(=O)[C@]1(C)Cn2cc(-c3nnc(Cc4ccc(F)cc4)s3)c(=O)c(O)c2C(=O)N1C(C)C [Example 307],11 nM
21,CC(C)NC(=O)[C@]1(C)Cn2cc(-c3nnc(Cc4ccc(F)cc4)s3)c(=O)c(O)c2C(=O)N1C(C)C [Example 308],13 nM
22,CC(C)N1C(=O)c2c(O)c(=O)c(-c3nnc(Cc4ccc(F)cc4)s3)cn2C[C@@]1(C)C(=O)NC(C)(C)C [Example 309],8.8 nM
23,CC(C)N1C(=O)c2c(O)c(=O)c(-c3nnc(Cc4ccc(F)cc4)s3)cn2C[C@@]1(C)C(=O)N1CCC1 [Example 310],9.9 nM
24,CC(C)N1C(=O)c2c(O)c(=O)c(-c3nnc(Cc4ccc(F)cc4)s3)cn2C[C@@]1(C)C(=O)N1CCOCC1 [Example 311],9.7 nM
25,CC(C)N1C(=O)c2c(O)c(=O)c(-c3nnc(Cc4ccc(F)cc4)s3)cn2C[C@@]1(C)C(=O)O [Example 312],12 nM
26,CN(C)C(=O)[C@@]1(C)CN(C)C(=O)c2c(O)c(=O)c(-c3nnc(Cc4ccc(F)cc4)s3)cn21 [Example 313],9.7 nM

row,SMILES,IC50
1,CN(C)C(=O)[C@@]1(C)CN(C)C(=O)c2c(O)c(=O)c(-c3ncc(Cc4ccc(F)cc4)s3)cn21 [Example 314],7.9 nM
2,CC(C)N1C(=O)c2c(O)c(=O)c(-c3nnc(Cc4ccc(F)cc4)s3)cn2C[C@@]1(C)C(=O)N(C)C [Example 315],8.8 nM
3,COC[C@H]1CN([C@@H](C)C2CC2)C(=O)c2c(O)c(=O)c(-c3nnc(Cc4ccc(F)cc4)s3)cn21 [Example 316],12 nM
4,COC[C@@H]1Cn2cc(-c3nnc(CCc4ccc(F)cc4F)s3)c(=O)c(O)c2C(=O)N1C(C)C [Example 317],9.8 nM
5,CCN1C(=O)c2c(O)c(=O)c(-c3nnc(Cc4ccc(F)cc4)s3)cn2C[C@]1(C)COC [Example 318],6.5 nM
6,CCN1C(=O)c2c(O)c(=O)c(-c3nnc(Cc4ccc(F)cc4F)s3)cn2CC1(COC)COC [Example 319],5.8 nM
7,COCC1(COC)Cn2cc(-c3nnc(Cc4ccc(F)cc4)s3)c(=O)c(O)c2C(=O)N1C(C)C [Example 320],9.4 nM
8,CC(C)N1C(=O)c2c(O)c(=O)c(-c3nnc(Cc4ccc(F)cc4F)s3)cn2C[C@@]1(C)C(=O)N(C)C [Example 321],7 nM
9,CCN1C(=O)c2c(O)c(=O)c(-c3nnc(Cc4ccc(F)cc4)s3)cn2C[C@]1(C)COCCOC [Example 323],14 nM
10,CC[C@@H]1Cn2cc(-c3ncc(Cc4ccc(F)cc4)s3)c(=O)c(O)c2C(=O)N1CC [Example 327],5.9 nM
11,CCN1C(=O)c2c(O)c(=O)c(-c3nnc(Cc4ccc(F)cc4)s3)cn2C[C@H]1C [Example 328],7.1 nM
12,CCN1C(=O)c2c(O)c(=O)c(-c3ncc(Cc4ccc(F)cc4)s3)cn2C[C@H]1C(C)C [Example 329],6.1 nM
13,CCN1C(=O)c2c(O)c(=O)c(-c3ncc(Cc4ccc(F)cc4)s3)cn2C[C@H]1C [Example 330],6.4 nM
14,CCN(C)C(=O)[C@]1(C)Cn2cc(-c3nnc(Cc4ccc(F)cc4)s3)c(=O)c(O)c2C(=O)N1C(C)C [Example 331],9.3 nM
15,CCN1C(=O)c2c(O)c(=O)c(-c3nnc(Cc4ccc(F)cc4)s3)cn2C[C@H]1[C@H](C)OC [Example 332],12 nM
16,CCN1C(=O)c2c(O)c(=O)c(-c3ncc(Cc4ccc(F)cc4)s3)cn2C[C@H]1[C@H](C)OC [Example 333],7.5 nM
17,CO[C@@H](C)[C@@H]1Cn2cc(-c3nnc(Cc4ccc(F)cc4)s3)c(=O)c(O)c2C(=O)N1C(C)C [Example 334],9.1 nM
18,CN(C)C(=O)[C@@]1(C)CN(C)C(=O)c2c(O)c(=O)c(-c3nnc(Cc4ccc(F)cc4F)s3)cn21 [Example 335],9.8 nM
19,CN(C)C(=O)[C@@]1(C)CN(C)C(=O)c2c(O)c(=O)c(-c3ncc(Cc4ccc(F)cc4F)s3)cn21 [Example 336],7.2 nM
20,CCC(CC)N1C[C@H](COC)n2cc(-c3nnc(Cc4ccc(F)cc4)s3)c(=O)c(O)c2C1=O [Example 337],17 nM
21,CO[C@H](C)[C@@H]1CN(C(C)C)C(=O)c2c(O)c(=O)c(-c3nnc(Cc4ccc(F)cc4)s3)cn21 [Example 338],7.1 nM
22,COC[C@H]1[C@@H](C)n2cc(-c3nnc(Cc4ccc(F)cc4)s3)c(=O)c(O)c2C(=O)N1C(C)C [Example 353],13 nM
23,CC(C)N1C(=O)c2c(O)c(=O)c(-c3nnc(Cc4ccc(F)cc4)s3)cn2C[C@H]1CO [Example 354],8 nM
24,CCN1C(=O)c2c(O)c(=O)c(-c3nnc(Cc4ccc(F)cc4)s3)cn2CC1(C)C [Example 355],6.6 nM
25,COC[C@@H]1[C@H](C)N(C(C)C)C(=O)c2c(O)c(=O)c(-c3nnc(Cc4ccc(F)cc4)s3)cn21 [Example 356],8.9 nM
